Reference: US20230085307A1, “PYRIDAZINONE COMPOUND AND HERBICIDE” (NISSAN CHEMICAL CORPORATION, priority 2019, published 2023)

How the values were obtained:
[1] = tested on: barnyard grass; experiment: Test Example 3: herbicidal effect by foliage application, Wagner pot (Table 18, symbol H); format: in vivo, barnyard grass (Echinochloa crus-galli); conditions: for herbicidal effect on H: barnyard grass: amount of applied herbicide 320 g/ha; for herbicidal effect on barnyard grass (H): 320 g/ha
Protocol: (§1) [Test Example 3] Herbicidal Effect Test by Foliage Application After alluvial soil was placed into 1/10000 are of Wagner pot, water was poured and mixed to form a submerged condition having a water depth of 0.1 cm to 0.5 cm. Seeds of barnyard grass, Chinese sprangletop, rice flat sedge, and rice were sowed and the pot was placed in a greenhouse at 25° C. to 30° C. for growth of the plants. After 14-day growth of the plants, the emulsion agent of the compound of the present invention prepared according to Formulation Example 2 was diluted with water so as to achieve a predetermined herbicide amount, and the diluted emulsion agent was uniformly applied to a foliage part with a small-sized spray. Three weeks after the herbicide application, the effect of the herbicide on each plant was evaluated according to the criteria of Test Example 1.

[2] = tested on: Chinese sprangletop; experiment: Test Example 3: herbicidal effect by foliage application, Wagner pot (Table 18, symbol D); format: in vivo, chinese sprangletop (Leptochloa chinensis); conditions: for herbicidal effect on D: Chinese sprangletop: amount of applied herbicide 320 g/ha; for herbicidal effect on Chinese sprangletop (D): 320 g/ha
Protocol: as §1

[3] = tested on: rice flat sedge; experiment: Test Example 3: herbicidal effect by foliage application, Wagner pot (Table 18, symbol E); format: in vivo, rice flat sedge (Cyperus iria); conditions: for herbicidal effect on E: rice flat sedge: amount of applied herbicide 320 g/ha; for herbicidal effect on rice flat sedge (E): 320 g/ha
Protocol: as §1

[4] = tested on: southern crabgrass; experiment: Test Example 5: herbicidal effect by foliage application, plastic box (Table 20, symbol F); format: in vivo, southern crabgrass (Digitaria ciliaris); conditions: foliage application, 320 g/ha, three weeks after application
From the text: (§2) [Test Example 5] Herbicidal Effect Test by Foliage Application
(§3) Sterilized diluvial soil was placed in a plastic box having a length of 21 cm, a width of 13 cm, and a depth of 7 cm. The seeds of each of southern crabgrass, green foxtail, barnyard grass, wild oat, blackgrass, Italian ryegrass, windgrass, velvetleaf, redroot pigweed, lambsquarters, chickweed, false cleavers, persian speedwell, corn, soybean, rice, wheat, beet, and rapeseed were sowed in a spot-like manner and covered with the soil having a thickness of about 1.5 cm. Thereafter, the plants were grown in a greenhouse at 25° C. to 30° C. After 14-day growth of the plants, the emulsion agent of the compound of the present invention prepared according to Formulation Example 2 was diluted with water so as to achieve a predetermined herbicide amount, and the diluted emulsion agent was uniformly applied to a foliage part with a small-sized spray. Three weeks after the herbicide application, the effect of the herbicide on each plant was evaluated according to the criteria of Test Example 1.

[5] = tested on: green foxtail; experiment: Test Example 5: herbicidal effect by foliage application, plastic box (Table 20, symbol G); format: in vivo, green foxtail (Setaria viridis); conditions: foliage application, 320 g/ha, three weeks after application
From the text: as §2, §3

[6] = tested on: wild oat; experiment: Test Example 5: herbicidal effect by foliage application, plastic box (Table 20, symbol I); format: in vivo, wild oat (Avena fatua); conditions: foliage application, 320 g/ha, three weeks after application
From the text: as §2, §3

[7] = tested on: velvetleaf; experiment: Test Example 5: herbicidal effect by foliage application, plastic box (Table 20, symbol M); format: in vivo, velvetleaf (Abutilon theophrasti); conditions: foliage application, 320 g/ha, three weeks after application
From the text: as §2, §3

[8] = tested on: windgrass; experiment: Test Example 5: herbicidal effect by foliage application, plastic box (Table 20, symbol L); format: in vivo, windgrass (Apera spica-venti); conditions: foliage application, 320 g/ha, three weeks after application
From the text: as §2, §3

[9] = tested on: lambsquarters; experiment: Test Example 5: herbicidal effect by foliage application, plastic box (Table 20, symbol O); format: in vivo, lambsquarters (Chenopodium album); conditions: foliage application, 320 g/ha, three weeks after application
From the text: as §2, §3

[10] = tested on: Italian ryegrass; experiment: Test Example 5: herbicidal effect by foliage application, plastic box (Table 20, symbol K); format: in vivo, Italian ryegrass (Lolium multiflorum); conditions: foliage application, 320 g/ha, three weeks after application
From the text: as §2, §3

[11] = tested on: barnyard grass; experiment: Test Example 5: herbicidal effect by foliage application, plastic box (Table 20, symbol H); format: in vivo, barnyard grass (Echinochloa crus-galli); conditions: foliage application, 320 g/ha, three weeks after application
From the text: as §2, §3

[12] = tested on: persian speedwell; experiment: Test Example 5: herbicidal effect by foliage application, plastic box (Table 20, symbol R); format: in vivo, Persian speedwell (Veronica persica); conditions: foliage application, 320 g/ha, three weeks after application
From the text: as §2, §3

[13] = tested on: blackgrass; experiment: Test Example 5: herbicidal effect by foliage application, plastic box (Table 20, symbol J); format: in vivo, blackgrass (Alopecurus myosuroides); conditions: foliage application, 320 g/ha, three weeks after application
From the text: as §2, §3

Cc1nn(C)c(=O)c(-c2c(-c3cnc(Cl)s3)sc3ccc(F)cc23)c1O [2-394]
herbicidal effect on H: barnyard grass [1]: 5 (Herbicidal rate of 90% or more (almost completely withered))
herbicidal effect on D: Chinese sprangletop [2]: 3 (Herbicidal rate of 40% or more and less than 70%)
herbicidal effect on E: rice flat sedge [3]: 5 (Herbicidal rate of 90% or more (almost completely withered))

COc1c(C)nn(C)c(=O)c1-c1c(-c2ccnc(F)c2)sc2ccc(F)cc12 [2-427]
herbicidal effect on H: barnyard grass [1]: 3 (Herbicidal rate of 40% or more and less than 70%)
herbicidal effect on D: Chinese sprangletop [2]: 0 (Herbicidal rate of 5% or less (almost no effect))
herbicidal effect on E: rice flat sedge [3]: 2 (Herbicidal rate of 20% or more and less than 40%)

Cc1nn(C)c(=O)c(-c2c(-c3ccc(OC(F)F)cc3)sc3c(Cl)cccc23)c1O [4-074]
herbicidal effect on barnyard grass (H) [1]: 4 (Herbicidal rate of 70% or more and less than 90%)
herbicidal effect on Chinese sprangletop (D) [2]: 0 (Herbicidal rate of 5% or less (almost no effect))
herbicidal effect on rice flat sedge (E) [3]: 3 (Herbicidal rate of 40% or more and less than 70%)

CCCC(=O)Oc1c(C)nn(C)c(=O)c1-c1c(-c2ccccc2O)sc2c(Cl)cccc12 [4-080]
herbicidal effect on barnyard grass (H) [1]: 2 (Herbicidal rate of 20% or more and less than 40%)
herbicidal effect on Chinese sprangletop (D) [2]: 3 (Herbicidal rate of 40% or more and less than 70%)
herbicidal effect on rice flat sedge (E) [3]: 4 (Herbicidal rate of 70% or more and less than 90%)

CCCC(=O)Oc1c(C)nn(C)c(=O)c1-c1c(-c2ccc(C(F)(F)F)cc2)sc2cc(Cl)c(Cl)cc12 [5-048]
herbicidal effect on barnyard grass (H) [1]: 3 (Herbicidal rate of 40% or more and less than 70%)
herbicidal effect on Chinese sprangletop (D) [2]: 4 (Herbicidal rate of 70% or more and less than 90%)
herbicidal effect on rice flat sedge (E) [3]: 0 (Herbicidal rate of 5% or less (almost no effect))

COc1cc2sc(-c3ccc(C#N)cc3)c(-c3c(O)c(C)nn(C)c3=O)c2cc1Cl [5-074]
herbicidal effect on barnyard grass (H) [1]: 3 (Herbicidal rate of 40% or more and less than 70%)
herbicidal effect on Chinese sprangletop (D) [2]: 5 (Herbicidal rate of 90% or more (almost completely withered))
herbicidal effect on rice flat sedge (E) [3]: 3 (Herbicidal rate of 40% or more and less than 70%)

COc1ccccc1-c1oc2ccc(Cl)cc2c1-c1c(O)c(C)nn(C)c1=O [9-001]
herbicidal effect on southern crabgrass (F) [4]: 0 (Herbicidal rate of 5% or less (almost no effect))
herbicidal effect on green foxtail (G) [5]: 0 (Herbicidal rate of 5% or less (almost no effect))
herbicidal effect on wild oat (I) [6]: 0 (Herbicidal rate of 5% or less (almost no effect))
herbicidal effect on velvetleaf (M) [7]: 2 (Herbicidal rate of 20% or more and less than 40%)
herbicidal effect on windgrass (L) [8]: 0 (Herbicidal rate of 5% or less (almost no effect))
herbicidal effect on lambsquarters (O) [9]: 3 (Herbicidal rate of 40% or more and less than 70%)
herbicidal effect on Italian ryegrass (K) [10]: 0 (Herbicidal rate of 5% or less (almost no effect))
herbicidal effect on barnyard grass (H) [11]: 0 (Herbicidal rate of 5% or less (almost no effect))
herbicidal effect on persian speedwell (R) [12]: 0 (Herbicidal rate of 5% or less (almost no effect))
herbicidal effect on blackgrass (J) [13]: 0 (Herbicidal rate of 5% or less (almost no effect))
